Like-named read-outs stand apart in the source and are kept apart here.
Legend:
full-length WRN helicase = molecular target: T1, full-length WRN helicase (Homo sapiens, UniProt Q14191); assay: Radiometric helicase inhibitor assay, full-length WRN unwinding of FORKR DNA substrate; type: biochemical; details: FORKR 0.5 nM; for remaining activity at 50 µM: 50 μM compound, read-out: % Control WRN Helicase Activity;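 for all read-outs here: WRN preincubated with compound 15 min at room temperature, then unwinding run 15 min at 37 °C with 2 mM ATP, relative to WRN unwinding without compound (100%)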
T1 construct: Full length recombinant WRN [18], BLM [19], and FANCJ [20] proteins were purified from insect cells; made in house; host or cells: insect cells
T1 sequence (Q14191 whole entry): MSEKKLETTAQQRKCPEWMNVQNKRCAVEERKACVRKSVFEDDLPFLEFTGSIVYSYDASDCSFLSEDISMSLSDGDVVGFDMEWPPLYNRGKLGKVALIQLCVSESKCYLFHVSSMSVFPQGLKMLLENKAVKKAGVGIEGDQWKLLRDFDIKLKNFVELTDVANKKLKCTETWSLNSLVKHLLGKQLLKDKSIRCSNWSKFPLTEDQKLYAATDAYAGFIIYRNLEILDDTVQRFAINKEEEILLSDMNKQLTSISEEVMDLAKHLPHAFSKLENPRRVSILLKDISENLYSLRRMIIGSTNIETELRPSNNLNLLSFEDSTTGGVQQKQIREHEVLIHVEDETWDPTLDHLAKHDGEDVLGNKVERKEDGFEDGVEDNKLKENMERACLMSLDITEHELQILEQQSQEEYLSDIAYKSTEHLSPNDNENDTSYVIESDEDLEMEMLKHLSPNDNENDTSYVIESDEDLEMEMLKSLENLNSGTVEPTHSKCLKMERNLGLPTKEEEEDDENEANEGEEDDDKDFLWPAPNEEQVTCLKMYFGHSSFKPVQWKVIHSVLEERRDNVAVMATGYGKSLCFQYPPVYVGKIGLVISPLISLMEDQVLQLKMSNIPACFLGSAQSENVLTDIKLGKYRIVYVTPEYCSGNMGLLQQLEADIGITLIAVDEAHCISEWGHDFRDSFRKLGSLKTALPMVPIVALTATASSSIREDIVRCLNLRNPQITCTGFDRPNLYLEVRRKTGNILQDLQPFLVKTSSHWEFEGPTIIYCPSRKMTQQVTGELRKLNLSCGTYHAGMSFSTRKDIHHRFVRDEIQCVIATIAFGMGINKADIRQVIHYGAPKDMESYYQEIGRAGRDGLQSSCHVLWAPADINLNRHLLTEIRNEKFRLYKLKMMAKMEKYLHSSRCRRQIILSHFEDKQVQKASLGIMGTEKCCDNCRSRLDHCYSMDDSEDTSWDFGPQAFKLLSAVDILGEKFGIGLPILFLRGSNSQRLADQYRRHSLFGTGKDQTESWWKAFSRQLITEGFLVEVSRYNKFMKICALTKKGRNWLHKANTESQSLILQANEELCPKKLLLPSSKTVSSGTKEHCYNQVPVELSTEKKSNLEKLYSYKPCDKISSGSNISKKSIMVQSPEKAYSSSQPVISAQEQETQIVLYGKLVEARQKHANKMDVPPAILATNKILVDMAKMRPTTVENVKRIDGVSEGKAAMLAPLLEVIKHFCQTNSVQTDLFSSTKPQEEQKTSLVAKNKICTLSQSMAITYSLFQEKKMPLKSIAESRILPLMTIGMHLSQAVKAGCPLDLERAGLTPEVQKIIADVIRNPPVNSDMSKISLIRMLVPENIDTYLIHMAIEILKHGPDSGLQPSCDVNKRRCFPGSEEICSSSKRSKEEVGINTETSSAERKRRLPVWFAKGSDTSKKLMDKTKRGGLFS
Experimental: Fifteen μL of reaction buffer was added to a microcentrifuge tube followed by the addition of 1 μL of selected compounds (0.5–100 μM final concentration) or DMSO. One μL of WRN (full length), RECQ1, FANCJ, BLM or control was added to each reaction and incubated at room temperature for 15 min. Three μL of substrate (0.5 nM FORKR and 2 mM ATP final concentrations) were added to all reactions which were incubated at 37°C for 15 min. Reactions were stopped with the addition of 20 μL of 2X STOP dye containing EDTA, glycerol, bromphenol blue and xylene cyanol. Samples were electrophoresed for 1.5 hr at 200 V on a 12% non-denaturing PAGE gel in 1X TBE Buffer.
The compounds were tested at a single concentration of 50 μM in the radiometric helicase assay with full-length recombinant WRN protein (1 nM) and the FORKR DNA substrate (0.5 nM) as described in the Materials and Methods section.
For each compound, we performed titrations over a wide range of concentrations with a fixed concentration of full-length WRN protein (1 nM), and quantitated unwinding as a percentage of full-length WRN unwinding of the FORKR DNA substrate (0.5 nM) in the absence of compound (Fig 6A and 6B, S3 Fig). […] In addition to determining an IC50 value for each compound, we also conducted helicase assays to determine the reversibility of inhibition by each compound tested. […] The reaction was diluted 100-fold with the addition of DNA substrate (0.5 nM final concentration) and ATP (2 mM final concentration) and unwinding was measured (Fig 7A–7D, S4 Fig). Inhibition was either classified as reversible, partially reversible, minimally reversible, or irreversible based on the ability of helicase activity to recover after dilution of the compound 100-fold.

HeLa 1.2.11 cells = assay: HeLa cell proliferation assay (WST-1); type: cell-based, human; details: 50 μM, 3-day time course
Experimental: WRN inhibitors were diluted in DMSO to a concentration 100-fold higher than their final concentrations. U2-OS cells in culture were counted, spun down and resuspended to 35,000 cells/mL in DMEM with 10% FBS and Pen/Strep antibiotic. For each cell condition, 15 μL of DMSO or inhibitor was added to 1.5 ml of U2-OS cells in DMEM or DMEM alone. One hundred μL of each cell condition was plated in triplicate on each of four 96-well plates representing days 0–3. Ten μL of WST-1 cell proliferation reagent (Roche) was added to the day 0 plate and readings were taken 2 hr later using a plate reader set to 450 nm. WST-1 cell proliferation reagent was added to plates on days 1–3 and readings were taken after 2 hr incubation. Percent cell proliferation was normalized to cells in the presence of DMSO with the background OD450 of DMEM with each drug subtracted out. […]
Fig 9 Effects of WRN helicase inhibitors on cancer cell proliferation. (A) Cell proliferation of HeLa 1.2.11 cells treated with 50 μM NCGC00029283-03, NCGC00063279-03, NCGC00357377-01 and NSC 617145 (positive control) or vehicle (DMSO) on Day 0 and Day 3 as measured using the WST-1 cell proliferation reagent. […]

[1] = molecular target: T2, GST-WRN500-946 helicase domain fragment (Homo sapiens, UniProt Q14191); assay: High-throughput fluorometric helicase screen, PubChem AID 651768; type: biochemical; details: initial qHTS; 20 nM GST-WRN500-946; 100 nM FORKF; NA = Not Active; read-out: IC50 (μM) Assay ID 651768
T2 construct: made in house; host or cells: insect cells
T2 sequence (Q14191 500-946): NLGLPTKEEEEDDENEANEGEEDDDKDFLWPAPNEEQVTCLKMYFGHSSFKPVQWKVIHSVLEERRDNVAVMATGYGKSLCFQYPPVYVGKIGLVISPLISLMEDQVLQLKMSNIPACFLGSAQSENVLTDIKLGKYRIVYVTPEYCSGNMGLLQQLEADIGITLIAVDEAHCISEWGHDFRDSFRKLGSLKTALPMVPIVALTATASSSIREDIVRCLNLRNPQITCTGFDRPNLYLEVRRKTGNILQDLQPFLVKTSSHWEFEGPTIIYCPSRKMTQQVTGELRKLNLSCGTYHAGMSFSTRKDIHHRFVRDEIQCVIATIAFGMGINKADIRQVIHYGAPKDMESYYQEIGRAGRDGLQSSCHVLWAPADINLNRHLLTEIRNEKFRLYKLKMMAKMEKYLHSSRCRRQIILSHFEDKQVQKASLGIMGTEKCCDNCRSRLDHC
Experimental: (§1) The structures of the members of this collection are available in the PubChem portal https://pubchem.ncbi.nlm.nih.gov/. For both the 350,000 small molecule collection and the LOPAC^1280 screens, 3 μL of GST-WRN500-946 or reaction buffer only were dispensed using a solenoid-valve nanoliter dispenser into a black 1536-well plate (Greiner). Twenty three nL of each serially diluted compound (0.08–50 μM for the LOPAC screen and 0.003–114 μM for the larger library screen) or control were added to each well using a Kalypsys pintool equipped with a 1536-pin array. Plates were incubated at room temperature for 15 min, followed by initiation of the reactions via the addition of 1 μL of substrate (100 nM FORKF and 2 mM ATP final concentrations). Plates were transferred to a ViewLux high-throughput CCD imager and fluorescence was measured in kinetic mode using an excitation filter of 525 nm and emission filter of 598 nm.
(§2) Zʹ factor, a measure for assay quality control was calculated using the formula Z′ = 1−(3σS^++3σS^−)∕|μS^+−μS^−| as described previously. In this formula, 3σS^+ represents 3 standard deviations from the mean of positive signals while 3σS^− represents 3 standard deviations from the mean of negative signals. μS^+ and μS^− represent the mean of positive signals and negative signals respectively. Percent activity was derived using in-house software (http://tripod.nih.gov/curvefit/). Dose-response curves were classified as described previously.
(§3) A collection of approximately 350,000 compounds is available for screening which has been assembled from multiple sources to provide diverse chemical scaffolds with known purity, identity and solubility. To perform the high-throughput screen of these compounds, we needed to produce approximately 50 milligrams of recombinant WRN helicase fragment. To accomplish this, we cloned the helicase domain fragment into several plasmids for either insect cell or bacterial expression to optimize expression and yield. We selected expression plasmids for insect cell expression with either a GST or MBP tag (image A in S1 Fig) and purified the protein (image B in S1 Fig). The GST-WRN500-946 fragment isolated from insect cells was used in the high throughput screen with the conditions described in Fig 2C (20 nM GST-WRN500-946, 100 nM FORKF DNA substrate) and a summary of the results can be found on PubChem (National Center for Biotechnology Information. PubChem BioAssay Database; Assay Identifier (AID) = 651768, https://pubchem.ncbi.nlm.nih.gov/bioassay/651768). […] To verify the active compounds, approximately 600 hit molecules were retested in a confirmatory screen also found on PubChem (National Center for Biotechnology Information. PubChem AID = 720497, https://pubchem.ncbi.nlm.nih.gov/bioassay/720497). Of these, a little less than four hundred compounds were confirmed as active compounds.

[2] = molecular target: T2, GST-WRN500-946 helicase domain fragment; assay: Confirmatory fluorometric helicase screen, PubChem AID 720497; type: biochemical; details: 20 nM GST-WRN500-946, 100 nM FORKF, NA = Not Active, read-out: IC50 (μM) Assay ID 720497
Experimental: as §1, §2, §3

BLM helicase fragment = test system: BLM helicase fragment; design: method as in PubChem; details: review of PubChem data from previously-conducted screens; ref PubChem; cited from earlier work
[3] = test system: Hematopoietic Protein Tyrosine Phosphatase (HePTP); design: method as in PMID 22070201; details: separate high-throughput screen; cited from earlier work
polymerases = test system: polymerases; design: method as in PubChem; details: review of PubChem data from previously-conducted screens; ref PubChem; cited from earlier work
[4] = radiometric assay, full-length WRN 1 nM, compound 0-100 μM, read-out: IC50
[5] = resynthesized or repurified compounds, full-length WRN, read-out: IC50 (μM): WRN

Compound | remaining activity at 50 µM (full-length WRN helicase; full-length WRN 1 nM) [%] | IC50 (full-length WRN helicase; [4]) [µM] | IC50 (full-length WRN helicase; [5]) [µM] | Effect on HeLa 1.2.11 cell proliferation (HeLa 1.2.11 cells) | IC50 [1] [µM] | IC50 [2] [µM] | Activity against BLM helicase fragment in high-throughput screens (BLM helicase fragment) | Inhibition of HePTP [3] | Activity against polymerases in high-throughput screens (polymerases)
Cc1ccc(-c2csc(NS(=O)(=O)c3cccc(F)c3)n2)o1 [MLS002251300-02] | 1 | 4 | 5 ± 1.4 | did not reduce cell proliferation | 31.6 | 24.1 | – | – | –
COc1ccc2nc(O)c(-c3noc(-c4ccc(F)cc4)n3)cc2c1 [NCGC00029283-02] | 6 | 3 | 2.3 ± 0.6 | – | 50 | – | no activity | inhibited | some activity
COc1ccc2nc(O)c(-c3noc(-c4ccccc4)n3)cc2c1 [NCGC00063279-02] | 18 | 12 | 13 ± 3.6 | – | 21.5 | 21.5 | no activity | inhibited | some activity

Reference: PMC6326523, “A high-throughput screen to identify novel small molecule inhibitors of the Werner Syndrome Helicase-Nuclease (WRN)” (PLoS ONE, 2019)
